Experimental data taken from ChEMBL document CHEMBL4321822 (J Med Chem, 2019).
Active and inactive are the calls of the source. The calls are words filed in the database; no cut-off is given here.

How the values were obtained:
[1] = target: Acetylcholinesterase (Homo sapiens) (UniProt P22303); assay: Inhibition of human erythrocyte AChE at 10 uM using acetylthiocholine iodide as substrate preincubated for 20 mins followed by substrate addition and measured after 2.5 mins by DTNB reagent based spectrometric method relative to control
[2] = target: Cholinesterases; ACHE & BCHE (Homo sapiens) (UniProt P06276+P22303); assay: Selectivity index, ratio of IC50 for inhibition of human erythrocyte AChE to IC50 for inhibition of human plasma BChE; type: protein assay
Cholinesterase [3] = target: T1, Cholinesterase (Homo sapiens, UniProt P06276); assay: Inhibition of human plasma BChE using butyrylthiocholine iodide as substrate preincubated for 20 mins followed by substrate addition and measured after 2.5 mins by DTNB reagent based spectrometric method
Cholinesterase [4] = target: T1, Cholinesterase; assay: (§1) Inhibition of human plasma BChE assessed as decarbamylation by measuring rate constant for enzyme recovery at IC>85 using butyrylthiocholine iodide as substrate incubated for 1 hr prior to compound dilution further incubated for 1 to 40 mins and subsequent substrate addition and measured after 2.5 mins by DTNB reagent based UV-spectrometric method
Cholinesterase [5] = target: T1, Cholinesterase; assay: (§2) Inhibition of human plasma BChE assessed as carbamylation by measuring rate constant for inhibitor-enzyme complex formation using butyrylthiocholine iodide as substrate preincubated for 5 to 40 mins followed by substrate addition and measured after 2.5 mins by DTNB reagent based UV-spectrometric method
Cholinesterase [6] = target: T1, Cholinesterase; assay: as §1, with “half life” for “decarbamylation by measuring rate constant”, “enzyme-inhibitor […]” for “enzyme recovery”
Cholinesterase [7] = target: T1, Cholinesterase; assay: as §2, with “[…]” for “inhibitor-enzyme”
Mus musculus [8] = assay: Neuroprotection against oligomerized-amyloid beta (25 to 35)-induced Swiss mouse model of Alzheimer's disease assessed as increase in number of arm entries at 0.3 to 3 mg/kg, ip administered once daily for 7 days measured on day 8 by Y-maze test; type: functional, organism-based
Mus musculus [9] = assay: Neuroprotection against oligomerized-amyloid beta (25 to 35)-induced Swiss mouse model of Alzheimer's disease assessed as improvement in spontaneous alternation at 0.3 mg/kg, ip administered once daily for 7 days measured on day 8 by Y-maze test; type: functional, organism-based
HT-22 [10] = assay: Neurotoxicity in mouse HT22 cells assessed as reduction in cell viability up to 25 uM measured after 24 hrs by MTT assay; type: toxicity, cell-based; settings: ht-22, 24 h
Mus musculus [11] = assay: Neuroprotection against oligomerized-amyloid beta (25 to 35)-induced Swiss mouse model of Alzheimer's disease assessed as increase in retention latency time at 0.3 to 3 mg/kg, ip administered once daily for 7 days measured 48 to 72 hrs post-last dose by step-through passive avoidance test; type: functional, organism-based
Mus musculus [12] = assay: Effect on shock sensitivity during training in Swiss mouse model of Alzheimer's disease assessed as increase in retention latency time at 0.3 to 3 mg/kg, ip administered once daily for 7 days measured 48 hrs post-last dose by step-through passive avoidance test; type: ADME, organism-based; settings: in vivo
Mus musculus [13] = assay: Effect on latency time during training in Swiss mouse model of Alzheimer's disease assessed as increase in retention latency time at 0.3 to 3 mg/kg, ip administered once daily for 7 days measured 48 hrs post-last dose by step-through passive avoidance test; type: ADME, organism-based; settings: in vivo
[14] = Toxicity in oligomerized-amyloid beta (25 to 35)-induced Swiss mouse model of Alzheimer's disease assessed as effect on body weight gain at 0.3 to 3 mg/kg, ip administered once daily for 7 days measured daily during compound dosing; type: organism-based; settings: in vivo, 168 h
HT-22 [15] = assay: Neuroprotection against glutamate-induced cell death in mouse HT22 cells assessed as increase in cell viability measured after 24 hrs by MTT assay; type: functional, cell-based
Mus musculus [16] = assay: Neuroprotection against oligomerized-amyloid beta (25 to 35)-induced Swiss mouse model of Alzheimer's disease assessed as improvement in spontaneous alternation at 1 mg/kg, ip administered once daily for 7 days measured on day 8 by Y-maze test; type: functional, organism-based
Acetylcholinesterase = target: T2, Acetylcholinesterase (Mus musculus, UniProt P21836); assay: Inhibition of mouse AChE using acetylthiocholine as substrate measured after 300 secs by Ellman's method
T2 sequence (P21836 whole entry): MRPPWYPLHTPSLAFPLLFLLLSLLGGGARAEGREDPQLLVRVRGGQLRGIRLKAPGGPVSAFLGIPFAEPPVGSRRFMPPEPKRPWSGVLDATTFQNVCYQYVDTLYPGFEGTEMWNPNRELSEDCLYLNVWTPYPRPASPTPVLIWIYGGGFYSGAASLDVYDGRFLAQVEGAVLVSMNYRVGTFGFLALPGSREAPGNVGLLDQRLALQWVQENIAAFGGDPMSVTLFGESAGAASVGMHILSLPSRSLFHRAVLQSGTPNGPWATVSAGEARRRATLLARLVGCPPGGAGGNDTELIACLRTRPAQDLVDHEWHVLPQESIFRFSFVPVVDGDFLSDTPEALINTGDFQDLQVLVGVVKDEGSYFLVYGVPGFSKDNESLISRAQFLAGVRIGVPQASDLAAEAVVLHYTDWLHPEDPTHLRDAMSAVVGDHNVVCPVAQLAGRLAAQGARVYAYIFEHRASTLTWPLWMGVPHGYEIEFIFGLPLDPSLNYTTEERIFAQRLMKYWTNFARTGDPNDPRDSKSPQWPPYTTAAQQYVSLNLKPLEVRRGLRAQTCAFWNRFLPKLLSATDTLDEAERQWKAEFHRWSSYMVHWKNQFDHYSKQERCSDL

Mus musculus [17] = assay: Neuroprotection against oligomerized-amyloid beta (25 to 35)-induced Swiss mouse model of Alzheimer's disease assessed as increase in retention latency time at 1 to 3 mg/kg, ip administered once daily for 7 days measured 48 to 72 hrs post-last dose by step-through passive avoidance test; type: functional, organism-based
Mus musculus [18] = assay: Neuroprotection against oligomerized-amyloid beta (25 to 35)-induced Swiss mouse model of Alzheimer's disease assessed as improvement in spontaneous alternation at 3 mg/kg, ip administered once daily for 7 days measured on day 8 by Y-maze test; type: functional, organism-based
Mus musculus [19] = assay: Neuroprotection against oligomerized-amyloid beta (25 to 35)-induced Swiss mouse model of Alzheimer's disease assessed as improvement in spontaneous alternation at 0.3 to 3 mg/kg, ip administered once daily for 7 days measured on day 8 by Y-maze test; type: functional, organism-based
Mus musculus [20] = assay: Neuroprotection against oligomerized-amyloid beta (25 to 35)-induced Swiss mouse model of Alzheimer's disease assessed as improvement in spontaneous alternation at 1 to 3 mg/kg, ip administered once daily for 7 days measured on day 8 by Y-maze test; type: functional, organism-based
HT-22 [21] = assay: Neuroprotection against glutamate-induced cell death in mouse HT22 cells assessed as increase in cell viability at 5 uM measured after 24 hrs by MTT assay; type: functional, cell-based

Acetylcholinesterase (Homo sapiens), sequence (P22303 whole entry): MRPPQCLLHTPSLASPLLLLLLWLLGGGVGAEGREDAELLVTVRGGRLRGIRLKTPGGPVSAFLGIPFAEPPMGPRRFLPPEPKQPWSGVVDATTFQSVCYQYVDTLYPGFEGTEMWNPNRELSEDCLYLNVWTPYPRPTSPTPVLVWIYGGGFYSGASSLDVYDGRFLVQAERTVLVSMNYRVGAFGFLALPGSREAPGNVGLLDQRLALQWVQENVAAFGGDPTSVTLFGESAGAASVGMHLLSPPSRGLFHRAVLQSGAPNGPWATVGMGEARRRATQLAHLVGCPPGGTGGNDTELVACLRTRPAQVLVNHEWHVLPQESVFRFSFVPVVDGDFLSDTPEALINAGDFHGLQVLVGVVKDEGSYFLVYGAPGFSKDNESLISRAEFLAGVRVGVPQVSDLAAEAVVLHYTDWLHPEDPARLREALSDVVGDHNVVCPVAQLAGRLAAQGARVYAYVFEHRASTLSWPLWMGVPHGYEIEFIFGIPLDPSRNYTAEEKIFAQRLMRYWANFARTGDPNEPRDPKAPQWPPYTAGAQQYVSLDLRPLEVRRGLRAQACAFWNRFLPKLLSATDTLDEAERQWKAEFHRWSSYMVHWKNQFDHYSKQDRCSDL
T1 sequence (P06276 whole entry): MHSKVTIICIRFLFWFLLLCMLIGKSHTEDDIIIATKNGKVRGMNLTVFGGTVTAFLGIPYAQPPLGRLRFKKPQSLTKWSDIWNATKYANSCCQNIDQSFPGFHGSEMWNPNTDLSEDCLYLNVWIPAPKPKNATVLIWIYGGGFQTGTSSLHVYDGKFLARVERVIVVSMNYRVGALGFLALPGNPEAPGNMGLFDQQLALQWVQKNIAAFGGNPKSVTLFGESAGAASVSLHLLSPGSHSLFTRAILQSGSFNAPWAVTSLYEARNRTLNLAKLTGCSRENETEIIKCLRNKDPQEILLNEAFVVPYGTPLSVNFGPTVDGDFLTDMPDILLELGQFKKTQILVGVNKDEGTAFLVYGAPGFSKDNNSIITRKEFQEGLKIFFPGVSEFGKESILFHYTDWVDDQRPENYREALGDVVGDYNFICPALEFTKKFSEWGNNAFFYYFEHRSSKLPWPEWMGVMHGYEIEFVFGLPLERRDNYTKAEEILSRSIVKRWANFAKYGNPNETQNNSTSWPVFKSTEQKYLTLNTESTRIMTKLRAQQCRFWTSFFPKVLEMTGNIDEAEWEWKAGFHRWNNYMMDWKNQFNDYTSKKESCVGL
Cholinesterases; ACHE & BCHE (Homo sapiens), sequence (P06276 whole entry, looked up): as the sequence (P06276 whole entry) above
Cholinesterases; ACHE & BCHE (Homo sapiens), sequence (P22303 whole entry, looked up): as the sequence (P22303 whole entry) above

| SMILES | inhibition [1] [%] | Ratio IC50 [2] | IC50 (Cholinesterase [3]) [nM] | K (Cholinesterase [4]) [h⁻¹] | K (Cholinesterase [5]) [min⁻¹] | T1/2 (Cholinesterase [6]) [h] | K (Cholinesterase [7]) [nM] | also measured |
| --- | --- | --- | --- | --- | --- | --- | --- | --- |
| CN1c2ccc(OC(=O)NCCCN3CCOCC3)cc2CN2CCc3ccccc3C21 (centres undefined) | 2.1 | > 100 | – | – | – | – | – | – |
| CN1c2ccc(OC(=O)NCCCCCCn3ccnc3)cc2CN2CCc3ccccc3C21 (centres undefined) | 9.1 | > 1000 | 13.3 | 0.82 | 0.31 | 0.85 | 13.1 | – |
| CN1c2ccc(OC(=O)NCCCCCCN3CCOCC3)cc2CN2CCc3ccccc3C21 (centres undefined) | 26.1 | > 1000 | 49.3 | 0.042 | 0.16 | 16.5 | 202 | Activity (Mus musculus [8]): Active; Activity (Mus musculus [9]): Active; Activity (HT-22 [10]): Non-Toxic; Activity (Mus musculus [11]): Active; Activity (Mus musculus [12]): Non-Toxic; Activity (Mus musculus [13]): Non-Toxic; Activity [14]: Non-Toxic; Activity (HT-22 [15]): Dose-dependent effect |
| CN1c2ccc(OC(=O)NCCCCCCN3CCc4ccccc4C3)cc2CN2CCc3ccccc3C21 (centres undefined) | 0.4 | > 1000 | 26.7 | 0.025 | 0.18 | 27.7 | 3.6 | Activity (Mus musculus [8]): Active; Activity (HT-22 [10]): Non-Toxic; Activity (Mus musculus [11]): Active; Activity (Mus musculus [16]): Active; Activity (Mus musculus [12]): Non-Toxic; Activity (Mus musculus [13]): Non-Toxic; Activity [14]: Non-Toxic; Activity (HT-22 [15]): Dose-dependent effect |
| CN1c2ccc(OC(=O)NCCN3CCc4ccccc4C3)cc2CN2CCc3ccccc3C21 (centres undefined) | 3.9 | > 10 | 1720 | – | > 20 | – | > 200000 | – |
| CN1c2ccc(OC(=O)NCCCCCCCCCCN3CCOCC3)cc2CN2CCc3ccccc3C21 (centres undefined) | 17.8 | > 1000 | 11.5 | – | – | – | – | – |
| CN1c2ccc(OC(=O)NCCCCCCn3cnc4ccccc43)cc2CN2CCc3ccccc3C21 (centres undefined) | 28.8 | > 1000 | – | 0.45 | 0.26 | 1.55 | 7.7 | – |
| COCCN(CC1CCCN(Cc2ccccc2)C1)S(=O)(=O)c1ccc2ccccc2c1 (centres undefined) | – | – | – | – | – | – | – | IC50 (Acetylcholinesterase): > 10000 nM |
| CN1c2ccc(OC(=O)NCCCCCCCCCCN3CCc4ccccc4C3)cc2CN2CCc3ccccc3C21 (centres undefined) | 5.7 | > 1000 | – | – | 0.25 | – | 5.68 | – |
| CN1c2ccc(OC(=O)NCCCCCCN3CCCCC3)cc2CN2CCc3ccccc3C21 (centres undefined) | – | 14 | 83.7 | 0.123 | – | 5.64 | – | – |
| CN1c2ccc(OC(=O)NCCCCCCCCN3CCc4ccccc4C3)cc2CN2CCc3ccccc3C21 (centres undefined) | 6.2 | > 1000 | 32.6 | 0.83 | – | 0.84 | – | – |
| CN1c2ccc(OC(=O)NCCCCCCN3CCNCC3)cc2CN2CCc3ccccc3C21 (centres undefined) | 35.5 | > 100 | 80.6 | 1.44 | 0.32 | 0.48 | 121 | – |
| CN1c2ccc(OC(=O)NCCCN3CCc4ccccc4C3)cc2CN2CCc3ccccc3C21 (centres undefined) | 6.4 | > 10 | 1160 | – | – | – | – | – |
| CN1c2ccc(OC(=O)NCCCCN3CCOCC3)cc2CN2CCc3ccccc3C21 (centres undefined) | 16.3 | > 1000 | 50.6 | 0.48 | – | 1.44 | – | – |
| CN1c2ccc(OC(=O)NCCCCCCN3CCCC3)cc2CN2CCc3ccccc3C21 (centres undefined) | – | 26 | 34.3 | 0.98 | – | 0.71 | – | – |
| CN1c2ccc(OC(=O)NCCCCCCCCN3CCOCC3)cc2CN2CCc3ccccc3C21 (centres undefined) | 13.6 | > 1000 | 19.8 | 1.58 | – | 0.44 | – | – |
| CCCCCCCNC(=O)Oc1ccc2c(c1)CN(C)C(c1cccs1)N2C (centres undefined) | – | – | – | – | – | – | – | Activity (Mus musculus [8]): inactive; Activity (Mus musculus [17]): Active; Activity (Mus musculus [12]): Non-Toxic; Activity (Mus musculus [18]): Active; Activity (Mus musculus [13]): Non-Toxic; Activity [14]: Non-Toxic |
| CN1c2ccc(O)cc2CN2CCc3ccccc3C21 (centres undefined) | – | – | – | – | – | – | – | Activity (Mus musculus [8]): Active; Activity (Mus musculus [19]): inactive; Activity (Mus musculus [11]): inactive; Activity (Mus musculus [12]): Non-Toxic; Activity (Mus musculus [13]): Non-Toxic; Activity [14]: Non-Toxic |
| CN1c2ccc(OC(=O)NCCCCCCN3CCN(C(=O)OC(C)(C)C)CC3)cc2CN2CCc3ccccc3C21 (centres undefined) | 70.6 | > 10 | 123 | – | 0.7 | – | 1550 | – |
| CCCCCCCNC(=O)Oc1ccc2c(c1)CN1CCc3ccccc3C1N2C (centres undefined) | – | – | – | – | 0.66 | – | – | Activity (Mus musculus [8]): Active; Activity (Mus musculus [20]): Active; Activity (HT-22 [10]): Non-Toxic; Activity (Mus musculus [11]): Active; Activity (Mus musculus [12]): Non-Toxic; Activity (Mus musculus [13]): Non-Toxic; Activity [14]: Non-Toxic; Activity (HT-22 [21]): Active |
| CN1c2ccc(OC(=O)NCCN3CCOCC3)cc2CN2CCc3ccccc3C21 (centres undefined) | 4.1 | > 10 | – | – | – | – | – | – |
| CN1c2ccc(OC(=O)NCCCCN3CCc4ccccc4C3)cc2CN2CCc3ccccc3C21 (centres undefined) | 6 | > 100 | 192 | 0.028 | – | 24.8 | – | – |
